In patent US7294635B2 (Portola Pharmaceuticals, Inc., priority 2003, dated 2007):

Tested on: ADP-induced human platelet aggregation
Assay: Inhibition of ADP-mediated platelet aggregation in vitro using platelet-rich plasma (PRP assay)
Assay type: cell-based
Settings: 5 min; human platelet-rich plasma, 2 μM ADP, 96-well microtiter, OD 650 nm at 5 min; read-out: Activity in the PRP assay
Method: This Example Provides an Assay for the Inhibition of ADP-Mediated Platelet Aggregation In Vitro Using Platelet-Rich Plasma (PRP)
Platelet-rich plasma (PRP) is prepared by centrifugation at 160×g for 20 minutes at room temperature. PRP is collected, and the platelet concentration is determined using a Coulter counter or hemocytometer (platelet concentration should be 2-4×10^8 platelets per mL).
Inhibition of ADP-dependent aggregation is preferably determined in 96-well flat-bottom microtiter plates using a microtiter plate shaker and plate reader similar to the procedure described by Frantantoni et al., Am. J. Clin. Pathol. […] All steps are performed at room temperature. The total reaction volume of 0.2 mL/well includes: PRP (˜6×10^7 total platelets in the presence of plasma), serial dilutions of test compounds (buffer for control wells) in 0.6% DMSO. After about 5 minutes preincubation at room temperature, ADP is added to a final concentration of 2 μM which induces submaximal aggregation. Buffer is added instead of ADP to one set of control wells (ADP-control). The OD of the samples is then determined at 650 nm using a microtiter plate reader (Softmax, Molecular Devices, Menlo Park, Calif.) resulting in the 0 minute reading. The plates are then agitated for 5 min on a microtiter plate shaker and the 5 minute reading is obtained in the plate reader. Aggregation is calculated from the decrease of OD at 650 nm at t=5 minutes compared to t=0 minutes and is expressed as % of the decrease in the ADP control samples after correcting for changes in the unaggregated control samples.

Row | SMILES | IC50
1 | CNc1cc2ccn(-c3ccc(NC(=O)NS(=O)(=O)c4ccc(Cl)s4)c(C(F)F)c3)c(=O)c2cc1F [Example 85, 5-chloro-N-[({2-(difluoromethyl)-4-[7-fluoro-6-(methylamino)-1-oxoisoquinolin-2(1H)-yl]phenyl}amino)carbonyl]thiophene-2-sulfonamide] | < 10 µM
2 | CNc1cc2ccn(-c3ccc(NC(=O)NS(=O)(=O)c4ccc(Cl)s4)c(OCCO)c3)c(=O)c2cc1F [Example 83, 5-chloro-N-({[4-[7-fluoro-6-(methylamino)-1-oxoisoquinolin-2(1H)-yl]-2-(2-hydroxyethoxy)phenyl]amino}carbonyl)thiophene-2-sulfonamide] | < 10 µM
3 | CNc1cc2ccn(-c3ccc(NC(=O)NS(=O)(=O)c4ccc(Cl)s4)c(S(C)(=O)=O)c3)c(=O)c2cc1F [Example 102, 5-chloro-N-({[4-[7-fluoro-6-(methylamino)-1-oxoisoquinolin-2(1H)-yl]-2-(methylsulfonyl)phenyl]amino}carbonyl)thiophene-2-sulfonamide] | > 30 µM
4 | CNc1cc2ccn(-c3cc(C)c(NC(=O)NS(=O)(=O)c4ccc(Cl)s4)c(C)c3)c(=O)c2cc1F [Example 96, 5-chloro-N-[({4-[7-fluoro-6-(methylamino)-1-oxoisoquinolin-2(1H)-yl]-2,6-dimethylphenyl}amino)carbonyl]thiophene-2-sulfonamide] | < 10 µM
5 | CNc1cc2ccn(-c3ccc(NC(=O)NS(=O)(=O)c4ccc(Cl)s4)cn3)c(=O)c2cc1F [Example 54, 5-chloro-N-[({6-[7-fluoro-6-(methylamino)-1-oxoisoquinolin-2(1H)-yl]pyridin-3-yl}amino)carbonyl]thiophene-2-sulfonamide] | < 10 µM
6 | CNc1cc2ccn(-c3ccc(NC(=O)NS(=O)(=O)c4ccc(Cl)s4)cc3)c(=O)c2cc1F [Example 10, 5-chloro-N-[({4-[7-fluoro-6-(methylamino)-1-oxoisoquinolin-2(1H)-yl]phenyl}amino)carbonyl]thiophene-2-sulfonamide] | < 10 µM
7 | CNc1cc2ccn(-c3ccc(NC(=O)NS(=O)(=O)c4ccc(Cl)s4)c(OCCOC(C)=O)c3)c(=O)c2cc1F [Example 82, 2-{2-[({[(5-chlorothien-2-yl)sulfonyl]amino}carbonyl)amino]-5-[7-fluoro-6-(methylamino)-1-oxoisoquinolin-2(1H)-yl]phenoxy}ethyl acetate] | 10 to 30 µM
8 | CNc1cc2ccn(-c3ccc(NC(=O)NS(=O)(=O)c4ccc(Cl)s4)cc3C)c(=O)c2cc1F [Example 52, 5-chloro-N-[({4-[7-fluoro-6-(methylamino)-1-oxoisoquinolin-2(1H)-yl]-3-methylphenyl}amino)carbonyl]thiophene-2-sulfonamide] | < 10 µM
9 | O=C(Nc1ccc(-n2ccc3cc(NCC(F)(F)F)c(F)cc3c2=O)cc1)NS(=O)(=O)c1ccc(Cl)s1 [Example 21, 5-chloro-N-[({4-[7-fluoro-1-oxo-6-[(2,2,2-trifluoroethyl)amino]isoquinolin-2(1H)-yl]phenyl}amino)carbonyl]thiophene-2-sulfonamide] | 10 to 30 µM
10 | CN(C)c1cc2ccn(-c3ccc(NC(=O)NS(=O)(=O)c4ccc(Cl)s4)cc3)c(=O)c2cc1F [Example 26, 5-chloro-N-[({4-[6-(dimethylamino)-7-fluoro-1-oxoisoquinolin-2(1H)-yl]phenyl}amino)carbonyl]thiophene-2-sulfonamide] | > 30 µM
11 | CCc1ccc(S(=O)(=O)NC(=O)Nc2ccc(-n3ccc4cc(NC)c(F)cc4c3=O)cc2)s1 [Example 30] | < 10 µM
12 | CNc1cc2ccn(-c3ccc(NC(=O)NS(=O)(=O)c4ccc(Cl)s4)c(OCCOC)c3)c(=O)c2cc1F [Example 91, 5-chloro-N-({[4-[7-fluoro-6-(methylamino)-1-oxoisoquinolin-2(1H)-yl]-2-(2-methoxyethoxy)phenyl]amino}carbonyl)thiophene-2-sulfonamide] | < 10 µM
13 | CNc1cc2ccn(-c3ccc(NC(=O)NS(=O)(=O)c4ccc(Cl)s4)c(OCC4CC4)c3)c(=O)c2cc1F [Example 86, 5-chloro-N-[({2-(cyclopropylmethoxy)-4-[7-fluoro-6-(methylamino)-1-oxoisoquinolin-2(1H)-yl]phenyl}amino)carbonyl]thiophene-2-sulfonamide] | < 10 µM
14 | CNc1cc2ccn(-c3ccc(NC(=O)NS(=O)(=O)c4ccc(Cl)s4)c(O)c3)c(=O)c2cc1F [Example 77, 5-chloro-N-[({4-[7-fluoro-6-(methylamino)-1-oxoisoquinolin-2(1H)-yl]-2-hydroxyphenyl}amino)carbonyl]thiophene-2-sulfonamide] | < 10 µM
15 | CNc1cc2ccn(-c3ccc(NC(=O)NS(=O)(=O)c4ccc(Cl)s4)c(C)c3)c(=O)c2cc1F [Example 53, 5-chloro-N-[({4-[7-fluoro-6-(methylamino)-1-oxoisoquinolin-2(1H)-yl]-2-methylphenyl}amino)carbonyl]thiophene-2-sulfonamide] | < 10 µM
16 | CNc1cc2ccn(-c3ccc(NC(=O)NS(=O)(=O)c4ccc(Cl)s4)c(Cl)c3)c(=O)c2cc1F [Example 103, 5-chloro-N-[({2-chloro-4-[7-fluoro-6-(methylamino)-1-oxoisoquinolin-2(1H)-yl]phenyl}amino)carbonyl]thiophene-2-sulfonamide] | < 10 µM
17 | CCOC(=O)c1cc(NC(=O)NS(=O)(=O)c2ccc(Cl)s2)ccc1-n1ccc2cc(NC)c(F)cc2c1=O [Example 65, ethyl 5-[({[(5-chlorothien-2-yl)sulfonyl]amino}carbonyl)amino]-2-[7-fluoro-6-(methylamino)-1-oxoisoquinolin-2(1H)-yl]benzoate] | 10 to 30 µM
18 | CNc1cc2ccn(-c3ccc(NC(=O)NS(=O)(=O)c4ccc(Cl)s4)c(C(C)C)c3)c(=O)c2cc1F [Example 92, 5-chloro-N-[({4-[7-fluoro-6-(methylamino)-1-oxoisoquinolin-2(1H)-yl]-2-isopropylphenyl}amino)carbonyl]thiophene-2-sulfonamide] | 10 to 30 µM
19 | CNc1cc2ccn(-c3ccc(NC(=O)NS(=O)(=O)c4sccc4C)cc3)c(=O)c2cc1F [Example 41] | 10 to 30 µM
20 | CNc1cc2ccn(-c3ccc(NC(=O)NS(=O)(=O)c4ccc(Cl)s4)c(OCOC)c3)c(=O)c2cc1F [Example 76, 5-chloro-N-({[4-[7-fluoro-6-(methylamino)-1-oxoisoquinolin-2(1H)-yl]-2-(methoxymethoxy)phenyl]amino}carbonyl)thiophene-2-sulfonamide] | < 10 µM
21 | CNc1cc2ccn(-c3ccc(NC(=O)NS(=O)(=O)c4ccc(C)s4)cc3)c(=O)c2cc1F [Example 29] | < 10 µM
22 | CNc1cc2ccn(-c3cc(C)c(NC(=O)NS(=O)(=O)c4ccc(Cl)s4)c(C(=O)OC)c3)c(=O)c2cc1F [Example 101, methyl 2-[({[(5-chlorothien-2-yl)sulfonyl]amino}carbonyl)amino]-5-[7-fluoro-6-(methylamino)-1-oxoisoquinolin-2(1H)-yl]-3-methylbenzoate] | < 10 µM
23 | CNc1cc2ccn(-c3ccc(NC(=O)NS(=O)(=O)c4ccc(Cl)s4)cc3C(N)=O)c(=O)c2cc1F [Example 68, 5-[({[(5-chlorothien-2-yl)sulfonyl]amino}carbonyl)amino]-2-[7-fluoro-6-(methylamino)-1-oxoisoquinolin-2(1H)-yl]benzamide] | 10 to 30 µM
24 | CNc1cc2ccn(-c3ccc(NC(=O)NS(=O)(=O)c4ccc(Cl)s4)c(OC(C)C)c3)c(=O)c2cc1F [Example 84, 5-chloro-N-[({4-[7-fluoro-6-(methylamino)-1-oxoisoquinolin-2(1H)-yl]-2-isopropoxyphenyl}amino)carbonyl]thiophene-2-sulfonamide] | 10 to 30 µM
25 | CNc1cc2ccn(-c3ccc(NC(=O)NS(=O)(=O)c4ccc(Cl)s4)c(OCCN(C)C)c3)c(=O)c2cc1F [Example 93, 5-chloro-N-[({2-[2-(dimethylamino)ethoxy]-4-[7-fluoro-6-(methylamino)-1-oxoisoquinolin-2(1H)-yl]phenyl}amino)carbonyl]thiophene-2-sulfonamide] | < 10 µM
26 | CNc1cc2ccn(-c3ccc(NC(=O)NS(=O)(=O)c4ccc(Cl)s4)c(F)c3)c(=O)c2cc1F [Example 58, 5-chloro-N-[({2-fluoro-4-[7-fluoro-6-(methylamino)-1-oxoisoquinolin-2(1H)-yl]phenyl}amino)carbonyl]thiophene-2-sulfonamide] | < 10 µM
27 | CNc1cc2ccn(-c3ccc(NC(=O)NS(=O)(=O)c4ccc(Cl)s4)cc3C#N)c(=O)c2cc1F [Example 67, 5-chloro-N-[({3-cyano-4-[7-fluoro-6-(methylamino)-1-oxoisoquinolin-2(1H)-yl]phenyl}amino)carbonyl]thiophene-2-sulfonamide] | 10 to 30 µM
28 | O=C(Nc1ccc(-n2ccc3cc(NC4CC4)c(F)cc3c2=O)cc1)NS(=O)(=O)c1ccc(Cl)s1 [Example 13, 5-chloro-N-[({4-[6-(cyclopropylamino)-7-fluoro-1-oxoisoquinolin-2(1H)-yl]phenyl}amino)carbonyl]thiophene-2-sulfonamide] | 10 to 30 µM

Same assay, conditions: Homo sapiens, Platelet, 5 min, read-out: Activity in the PRP assay

Row | SMILES | IC50
29 | CCNc1cc2ccn(-c3ccc(NC(=O)NS(=O)(=O)c4ccc(Cl)s4)cc3)c(=O)c2cc1F [Example 19, 5-chloro-N-[({4-[6-(ethylamino)-7-fluoro-1-oxoisoquinolin-2(1H)-yl]phenyl}amino)carbonyl]thiophene-2-sulfonamide] | < 10 µM
